In patent publication US20240391965A1, “STAPLED ANTIMICROBIAL PEPTIDES (STAMPS) AND USES THEREOF” (Lytica Therapeutics, Inc., priority 2021, published 2024):
Values after ≈ are worked out from the molar mass of the structure shown. Starred links: 1 amine or outer side, 2 acyl side, 3 side chain; linkers in the order of their positions; H or OH if unused. Positions of bridges follow the written chain, without caps; N, C: chain ends. Residues, ends and D or L forms follow the SMILES beside them. Biphenyl(4,4'-CH2)2 = c1cc(-c2ccc(C[*:2])cc2)ccc1C[*:1]; mXylylene = c1cc(C[*:1])cc(C[*:2])c1; pXylylene = c1cc(C[*:2])ccc1C[*:1]

Columns and labels:
[1] = 90 minute cytotoxicity assay (LDH release), renal toxicity; assay type: cell-based
Summary of the method: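 Released lactate dehydrogenase, read as absorbance at 490 nm after 10 min with assay reagent, serves as read-out. Renal proximal tubule epithelial cells received peptide serial dilutions or vehicle for 90 min at 37° C after overnight plating.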

[2] = 48 hours cytotoxicity assay (CellTiter-Glo), liver toxicity; assay type: cell-based, human
Summary of the method: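 Viability from CellTiter-Glo luminescence after StAMP dilution series or vehicle acted on HepG2 cells for 48 h at 37 °C. Cells were grown in EMEM plus 10% FBS and given 4 h to attach before dosing.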

SMILES | IC50 [1] | IC50 [2]
CC[C@H](C)[C@H](NC(=O)CN)C(=O)N[C@@H](Cc1ccccc1)C(=O)N[C@@H](CO)C(=O)N[C@@H](CCCCN)C(=O)N[C@@H](CC(C)C)C(=O)N[C@@H](C)C(=O)NCC(=O)N[C@@H](CCCCN)C(=O)N[C@@H](CCCCN)C(=O)N[C@H](C(=O)N[C@@H](CCCCN)C(=O)N[C@@H](CC(N)=O)C(=O)N[C@@H](CC(C)C)C(=O)N[C@@H](CC(C)C)C(=O)N[C@H](C(=O)N[C@H]1CSCc2cccc(c2)CSC[C@@H](C(N)=O)NC(=O)[C@H](CCCCN)NC(=O)[C@H](CC(C)C)NC(=O)CNC1=O)[C@@H](C)CC)[C@@H](C)CC [compound 44] (H-GIFSKLAGKKIKNLLICGLKC-NH2; linker 17-21 via mXylylene; N-terminus assumed) | 86 µg/mL (≈ 36.6 µM) | 48 µg/mL (≈ 20.4 µM)
CC[C@H](C)[C@H](NC(=O)CN)C(=O)N[C@@H](Cc1ccccc1)C(=O)N[C@@H](CO)C(=O)N[C@@H](CCCCN)C(=O)N[C@@H](CC(C)C)C(=O)N[C@@H](C)C(=O)NCC(=O)N[C@@H](CCCCN)C(=O)N[C@@H](CCCCN)C(=O)N[C@H](C(=O)N[C@@H](CCCCN)C(=O)N[C@@H](CC(N)=O)C(=O)N[C@@H](CC(C)C)C(=O)N[C@@H](CC(C)C)C(=O)N[C@H](C(=O)N[C@H]1CSCc2ccc(cc2)CSC[C@@H](C(N)=O)NC(=O)[C@H](CCCCN)NC(=O)[C@H](CC(C)C)NC(=O)CNC1=O)[C@@H](C)CC)[C@@H](C)CC [compound 45] (H-GIFSKLAGKKIKNLLICGLKC-NH2; linker 17-21 via pXylylene; N-terminus assumed) | 105 µg/mL (≈ 44.7 µM) | 83 µg/mL (≈ 35.3 µM)
CC[C@H](C)[C@H](NC(=O)[C@H](CC(C)C)NC(=O)[C@H](CC(C)C)NC(=O)[C@H](CC(N)=O)NC(=O)[C@H](CCCCN)NC(=O)[C@@H](NC(=O)[C@H](CCCCN)NC(=O)[C@@H]1CSCc2ccc(cc2)-c2ccc(cc2)CSC[C@H](NC(=O)CN)C(=O)N[C@@H](Cc2ccccc2)C(=O)N[C@@H](CO)C(=O)N[C@@H](CCCCN)C(=O)N[C@@H](CC(C)C)C(=O)N[C@@H](C)C(=O)NCC(=O)N1)[C@@H](C)CC)C(=O)N[C@@H](CO)C(=O)NCC(=O)N[C@@H](CC(C)C)C(=O)N[C@@H](CCCCN)C(=O)NCC(N)=O [compound 53] (H-GCFSKLAGCKIKNLLISGLKG-NH2; linker 2-9 via Biphenyl(4,4'-CH2)2; N-terminus assumed) | 40 µg/mL (≈ 17.2 µM) | 78 µg/mL (≈ 33.5 µM)
CC[C@H](C)[C@H](NC(=O)CN)C(=O)N[C@H]1CSCc2ccc(cc2)-c2ccc(cc2)CSC[C@@H](C(=O)N[C@H](C(=O)N[C@@H](CCCCN)C(=O)N[C@@H](CC(N)=O)C(=O)N[C@@H](CC(C)C)C(=O)N[C@@H](CC(C)C)C(=O)N[C@H](C(=O)N[C@@H](CO)C(=O)NCC(=O)N[C@@H](CC(C)C)C(=O)N[C@@H](CCCCN)C(=O)NCC(N)=O)[C@@H](C)CC)[C@@H](C)CC)NC(=O)[C@H](CCCCN)NC(=O)CNC(=O)[C@H](C)NC(=O)[C@H](CC(C)C)NC(=O)[C@H](CCCCN)NC(=O)[C@H](CO)NC1=O [compound 56] (H-GICSKLAGKCIKNLLISGLKG-NH2; linker 3-10 via Biphenyl(4,4'-CH2)2; N-terminus assumed) | 17 µg/mL (≈ 7.41 µM) | 34 µg/mL (≈ 14.8 µM)
CC[C@H](C)[C@H](NC(=O)CN)C(=O)N[C@@H](Cc1ccccc1)C(=O)N[C@@H](CO)C(=O)N[C@@H](CCCCN)C(=O)N[C@H]1CSCc2ccc(cc2)-c2ccc(cc2)CSC[C@@H](C(=O)N[C@@H](CC(C)C)C(=O)N[C@@H](CC(C)C)C(=O)N[C@H](C(=O)N[C@@H](CO)C(=O)NCC(=O)N[C@@H](CC(C)C)C(=O)N[C@@H](CCCCN)C(=O)NCC(N)=O)[C@@H](C)CC)NC(=O)[C@H](CCCCN)NC(=O)[C@H]([C@@H](C)CC)NC(=O)[C@H](CCCCN)NC(=O)[C@H](CCCCN)NC(=O)CNC(=O)[C@H](C)NC1=O [compound 65] (H-GIFSKCAGKKIKCLLISGLKG-NH2; linker 6-13 via Biphenyl(4,4'-CH2)2; N-terminus assumed) | 15 µg/mL (≈ 6.4 µM) | 13 µg/mL (≈ 5.55 µM)
CC[C@H](C)[C@H](NC(=O)CN)C(=O)N[C@@H](Cc1ccccc1)C(=O)N[C@@H](CO)C(=O)N[C@@H](CCCCN)C(=O)N[C@@H](CC(C)C)C(=O)N[C@H]1CSCc2ccc(cc2)-c2ccc(cc2)CSC[C@@H](C(=O)N[C@@H](CC(C)C)C(=O)N[C@H](C(=O)N[C@@H](CO)C(=O)NCC(=O)N[C@@H](CC(C)C)C(=O)N[C@@H](CCCCN)C(=O)NCC(N)=O)[C@@H](C)CC)NC(=O)[C@H](CC(N)=O)NC(=O)[C@H](CCCCN)NC(=O)[C@H]([C@@H](C)CC)NC(=O)[C@H](CCCCN)NC(=O)[C@H](CCCCN)NC(=O)CNC1=O [compound 88] (H-GIFSKLCGKKIKNCLISGLKG-NH2; linker 7-14 via Biphenyl(4,4'-CH2)2; N-terminus assumed) | 13 µg/mL (≈ 5.45 µM) | 15 µg/mL (≈ 6.29 µM)
CC[C@H](C)[C@H](NC(=O)CN)C(=O)N[C@@H](Cc1ccccc1)C(=O)N[C@@H](CO)C(=O)N[C@@H](CCCCN)C(=O)N[C@@H](CC(C)C)C(=O)N[C@H]1CSCc2cccc(c2)CSC[C@@H](C(=O)N[C@@H](CCCCN)C(=O)N[C@@H](CC(N)=O)C(=O)N[C@@H](CC(C)C)C(=O)N[C@@H](CC(C)C)C(=O)N[C@H](C(=O)N[C@@H](CO)C(=O)NCC(=O)N[C@@H](CC(C)C)C(=O)N[C@@H](CCCCN)C(=O)NCC(=O)NCC(=O)NCC(=O)N[C@@H](CCCCN)C(=O)O)[C@@H](C)CC)NC(=O)[C@H](CCCCN)NC(=O)[C@H](CCCCN)NC(=O)CNC1=O [compound 94] (H-GIFSKLCGKKCKNLLISGLKGGGK-OH; linker 7-11 via mXylylene; N-terminus assumed) | 168 µg/mL (≈ 65.8 µM) | > 200 µg/mL
CC[C@H](C)[C@H](NC(=O)CN)C(=O)N[C@@H](Cc1ccccc1)C(=O)N[C@@H](CO)C(=O)N[C@@H](CCCCN)C(=O)N[C@@H](CC(C)C)C(=O)N[C@H]1CSCc2cccc(c2)CSC[C@@H](C(=O)N[C@@H](CCCCN)C(=O)N[C@@H](CC(N)=O)C(=O)N[C@@H](CC(C)C)C(=O)N[C@@H](CC(C)C)C(=O)N[C@H](C(=O)N[C@@H](CO)C(=O)NCC(=O)N[C@@H](CC(C)C)C(=O)N[C@@H](CCCCN)C(=O)NCC(=O)N[C@@H](C)C(=O)NCC(=O)O)[C@@H](C)CC)NC(=O)[C@H](CCCCN)NC(=O)[C@H](CCCCN)NC(=O)CNC1=O [compound 95] (H-GIFSKLCGKKCKNLLISGLKGAG-OH; linker 7-11 via mXylylene; N-terminus assumed) | 167 µg/mL (≈ 68.5 µM) | > 200 µg/mL
CC[C@H](C)[C@H](NC(=O)CN)C(=O)N[C@@H](Cc1ccccc1)C(=O)N[C@@H](CO)C(=O)N[C@@H](CCCCN)C(=O)N[C@@H](CC(C)C)C(=O)N[C@H]1CSCc2cccc(c2)CSC[C@@H](C(=O)N[C@@H](CCCCN)C(=O)N[C@@H](CC(N)=O)C(=O)N[C@@H](CC(C)C)C(=O)N[C@@H](CC(C)C)C(=O)N[C@H](C(=O)N[C@@H](CO)C(=O)NCC(=O)N[C@@H](CC(C)C)C(=O)N[C@@H](CCCCN)C(=O)NCC(=O)N[C@@H](C)C(=O)N[C@@H](CCCCN)C(=O)O)[C@@H](C)CC)NC(=O)[C@H](CCCCN)NC(=O)[C@H](CCCCN)NC(=O)CNC1=O [compound 96] (H-GIFSKLCGKKCKNLLISGLKGAK-OH; linker 7-11 via mXylylene; N-terminus assumed) | 153 µg/mL (≈ 61 µM) | 193 µg/mL (≈ 76.9 µM)
CC[C@H](C)[C@H](NC(=O)CN)C(=O)N[C@@H](Cc1ccccc1)C(=O)N[C@@H](CO)C(=O)N[C@@H](CCCCN)C(=O)N[C@@H](CC(C)C)C(=O)N[C@H]1CSCc2cccc(c2)CSC[C@@H](C(=O)N[C@@H](CCCCN)C(=O)N[C@@H](CC(N)=O)C(=O)N[C@@H](CC(C)C)C(=O)N[C@@H](CC(C)C)C(=O)N[C@H](C(=O)N[C@@H](CO)C(=O)NCC(=O)N[C@@H](CC(C)C)C(=O)N[C@@H](CCCCN)C(=O)NCC(=O)O)[C@@H](C)CC)NC(=O)[C@H](CCCCN)NC(=O)[C@H](CCCCN)NC(=O)[C@H](C)NC1=O [compound 97] (H-GIFSKLCAKKCKNLLISGLKG-OH; linker 7-11 via mXylylene; N-terminus assumed) | > 200 µg/mL | > 200 µg/mL
CC[C@H](C)[C@H](NC(=O)CN)C(=O)N[C@@H](Cc1ccccc1)C(=O)N[C@@H](CO)C(=O)N[C@@H](CCCCN)C(=O)N[C@@H](CC(C)C)C(=O)N[C@H]1CSCc2cccc(c2)CSC[C@@H](C(=O)N[C@@H](CCCCN)C(=O)N[C@@H](CC(N)=O)C(=O)N[C@@H](CC(C)C)C(=O)N[C@@H](CC(C)C)C(=O)N[C@H](C(=O)N[C@@H](CO)C(=O)N[C@@H](C)C(=O)N[C@@H](CC(C)C)C(=O)N[C@@H](CCCCN)C(=O)NCC(=O)O)[C@@H](C)CC)NC(=O)[C@H](CCCCN)NC(=O)[C@H](CCCCN)NC(=O)CNC1=O [compound 98] (H-GIFSKLCGKKCKNLLISALKG-OH; linker 7-11 via mXylylene; N-terminus assumed) | 28 µg/mL (≈ 12 µM) | 50 µg/mL (≈ 21.5 µM)
CC[C@H](C)[C@H](NC(=O)CN)C(=O)N[C@@H](Cc1ccccc1)C(=O)N[C@@H](CO)C(=O)N[C@@H](CCCCN)C(=O)N[C@@H](CC(C)C)C(=O)N[C@H]1CSCc2cccc(c2)CSC[C@@H](C(=O)N[C@@H](CCCCN)C(=O)N[C@@H](CC(N)=O)C(=O)N[C@@H](CC(C)C)C(=O)N[C@@H](CC(C)C)C(=O)N[C@H](C(=O)N[C@@H](CO)C(=O)N[C@@H](C)C(=O)N[C@@H](CC(C)C)C(=O)N[C@@H](CCCCN)C(=O)NCC(=O)O)[C@@H](C)CC)NC(=O)[C@H](CCCCN)NC(=O)[C@H](CCCCN)NC(=O)[C@H](C)NC1=O [compound 99] (H-GIFSKLCAKKCKNLLISALKG-OH; linker 7-11 via mXylylene; N-terminus assumed) | 45 µg/mL (≈ 19.2 µM) | 59 µg/mL (≈ 25.2 µM)
